Experimental data reported in US20060154993A1, “Method for treating and preventing male infertility” (priority 2004, published 2006).
Where “and” joins values, the source holds several entries; their conditions need not be identical. Identical values can stand only once. Marks after values point to notes of the source that are not given here.

Tests used:
sperm cells [1] = assay: Seminal fluid analysis (WHO criteria): sperm concentration, motility, morphology; assay type: in vivo, human; conditions: for Sperm concentration / Teratozoospermia: NS
Method: (§1) The enrolled patients underwent dietary implementation of CoQ10 (PharmaNord, Veyle, Denmark), 200 mg/day twice daily orally for 6 months. Clinical examination, semen analysis including computer-assisted sperm analysis (CASA), and CoQ10 and PC assays were performed at baseline and after 6 months of therapy. An additional semen analysis was performed 6 months after the termination of therapy (wash-out). This study was approved by the Institutional Review Board of the University of Ancona-Umberto I Hospital. All patients provided their written informed consent and completed the entire trial.
Semen quality was assessed by the same biologist in terms of sperm concentration, motility, and morphology in accordance with WHO criteria. Briefly, seminal fluid was obtained by masturbation after 3-5 days of sexual abstinence. The samples were kept in the andrology lab at room temperature and processed within 1 hour from ejaculation. Sperm count was determined with the Makler chamber. Motile spermatozoa were assessed by phase contrast microscopy (10 μL of semen was delivered onto a glass slide and covered with a 22 mm×22 mm coverslip) and graded as follows: class a and b, fast and weak forward motility; class c, nonprogressive motility; class d, immobile spermatozoa. Sperm morphology was evaluated on smears of seminal fluid, stained with the Giemsa method, and observed by oil immersion light microscopy. Conventional immunocytochemistry was used to assess WBC.

[2] = Phosphatidylcholine (PC) levels in seminal plasma and sperm cells by HPLC-UV after CoQ10 treatment; assay type: in vivo, human; conditions: after 6 months CoQ10 orally, mean ± SD, P<0.05
Method: as §1
Analysis of PC was performed according to Frei et al. with the modification described by Yamamoto et al. After adding 1 mL of methanol to a cellular suspension containing about 10^6 sperm cells or to 50 μL of seminal plasma, samples were mixed for 1 minute; then 6 mL of hexane were added and samples were mixed again before centrifugation (10 minutes at 500 g). Supernatant was collected and dried with a nitrogen stream. Dried sample residues were dissolved in 300 μL of ethanol.
Phosphatidylcholine was essentially determined according to Frei et al. An analytical column was a Supelcosil LCSi, 25 cm×0.46 cm ID, 5 μm (Supelco). A Jasco HPLC System (Jasco Corporation, Tokyo, Japan) provided with two PU-980 pumps, and a UV detector set at 205 nm wavelength was used for detention of total PC.

[3] = after chronic administration of the quinone; commonly found; cited from earlier work
[4] = CoQ10 levels in seminal plasma and sperm cells by HPLC-EC, idiopathic asthenospermia patients on CoQ10; assay type: in vivo, human
Method: (§2) Twenty-two patients (mean age, 31 years; range, 25-39 years) with idiopathic asthenospermia were enrolled in the study. The patients were selected at the Andrology Unit of the Division of Endocrinology, Umberto I Hospital, University of Ancona, Ancona, Italy. All subjects underwent medical screening, including history and clinical examination, and presented with a clinical history of primary infertility of at least 3 years. Testicular volume was evaluated in each patient using Prader's orchidometer. To accomplish a complete diagnosis, the following investigations were also performed: semen analysis; Mar-test (SperMar test, Diasint, Florence, Italy) for anti-spermatozoa antibodies (Ab); sperm culture and urethral specimens collection for Chlamydia and Mycoplasma ureoliticum detection; FSH, LH, T, E2, and PRL assays, using commercial RIA kits; and testicular, prostatic, and seminal vesicle ultrasound and echo-color Doppler of venous spermatic plexus for anatomical abnormalities and varicocele detection.
as §1
The liquefied semen samples were centrifuged at room temperature at 500×g for 18 minutes. The sperm cell pellet was washed with 0.15 M NaCl. Two hundred fifty microliters of 1-propanol were added to 50 μL of a cellular suspension containing 10^6 sperm cells or to 50 μL of seminal plasma. After mixing for 1 minute, the samples were centrifuged for 5 minutes at 2,000×g and the obtained supernatants were injected into the high pressure liquid chromatography (HPLC) apparatus. […]
CoQ10 levels were assayed in sperm cells and seminal plasma using a Beckman Gold HPLC System (Beckman Instruments, San Ramon, Calif.) equipped with an electrochemical detector (EC, ESA 5100, Bedford, Mass.) as described elsewhere. The detector was supplied with a guard cell and an analytical cell with two electrodes in series; the potentials applied to the electrodes were, respectively, +0.6V, −0.45V, and +0.6V; chromatograms were recorded from the second analytical cell signal. One hundred microliters of samples were directly injected into the analytical column and analyzed; an analytical column was a Supelcosil reverse-phase C18, 15 cm×0.46 cm ID, 3 μm (Supelco, Inc., Bellefonte, Pa.). […]

sperm cells [5] = assay: Computer-assisted sperm analysis (CASA) of sperm cell motility; assay type: in vivo, human; conditions: after 6 months treatment, P<0.05; for Straight progressive velocity (VSL): baseline 15.20 ± 1.30; for Curvilinear velocity (VCL): baseline 26.31 ± 1.50
Method: as §1
In addition, CASA for sperm cell motility was performed, as reported elsewhere. One semen aliquot (3 μL) was placed in a 20-μm depth chamber. Two 20-μm depth cell-VU chambers (Conception Technologies, La Jolla, Calif.) were loaded, and six different fields per chamber were randomly examined and at least 200 sperm for each field of the chamber were scored. Percentages of motile sperm and movement characteristics were analyzed using an automated analyzer at 37° C. (CellTrack VP 110, Motion Analysis Corporation, Palo Alto, Calif.). Sperm velocity and kinetic characteristics were evaluated only for motile sperm and expressed as mean values considering curvilinear velocity (VCL) and straight progressive velocity (VSL).

[6] = tested on: idiopathic asthenospermia; assay: Spontaneous pregnancy after CoQ10 therapy; assay type: in vivo, human; conditions: within 3 months of the discontinuation of therapy
Method: as §2
There was no apparent female factor, since all partners (mean age, 28 years; range, 23-35 years) were ovulating regularly as formally proven by luteal phase progesterone (P) levels and no abnormal fallopian tube anatomy was detected after hysterosalpingography. […]

Safety assessment = assay type: in vivo, human; conditions: oral administration, 6 months
Text: Safety assessment included medical history, physical examination, hematological screening, and serum chemistry at all visits and the monitoring of drug-related adverse events by recordation in patient diaries.

[7] = after 6 months wash-out, listed as coenzyme Q10

CoQ10, seminal plasma ([4]; after 6 months CoQ10 200 mg/day twice daily orally, baseline 42.0 ± 5.1, mean ± SD, P<0.005): 127.1 ± 1.9^a ng/mL
seminal plasma CoQ10 post-treatment level relative to basal ([4]; after 6 months treatment): 3 times
concentration at 6 months ([4]; male, human, seminal plasma, po, after 6 months CoQ10 200 mg/day twice daily orally, baseline 42.0 ± 5.1, mean ± SD, P<0.005): 127 ± 1.9 ng/mL
SMILES: COC1=C(OC)C(=O)C(C/C=C(\C)CC/C=C(\C)CC/C=C(\C)CC/C=C(\C)CC/C=C(\C)CC/C=C(\C)CC/C=C(\C)CC/C=C(\C)CC/C=C(\C)CCC=C(C)C)=C(C)C1=O [CoQ10, ubiquinone]
Forward Motility (class a+b) (sperm cells [1]; after 6 months treatment, baseline 9.13 ± 2.50, P<0.05): 16.34%±3.43
Forward Motility (class a+b) (sperm cells [1]; after 6 months treatment, baseline 9.13 ± 2.50, P<0.05, listed as coenzyme Q10): 16.34 ± 3.43^a %
Sperm concentration (sperm cells [1]; after 6 months treatment, baseline 27.60 ± 7.41): No significant differences
Sperm concentration (sperm cells [1]; after 6 months treatment, baseline 27.60 ± 7.41, listed as coenzyme Q10): 25.92 ± 5.63, NS 106/mL
Teratozoospermia (sperm cells [1]; after 6 months treatment, baseline 69.76 ± 4.63): No significant differences
Teratozoospermia (sperm cells [1]; after 6 months treatment, baseline 69.76 ± 4.63, listed as coenzyme Q10): 67.82 ± 7.44, NS %
Forward Motility (class a+b) (sperm cells [1]; after 6 months wash-out): 9.50% ±2.28
Sperm concentration (sperm cells [1]; after 6 months wash-out): no significant differences
Teratozoospermia (sperm cells [1]; after 6 months wash-out): no significant differences
Sperm concentration (sperm cells [1]; [7]): 26.18 ± 4.04, NS 106/mL
Teratozoospermia (sperm cells [1]; [7]): 66.23 ± 5.34, NS %
Forward Motility (class a+b) (sperm cells [1]; [7]): 9.50 ± 2.28^b %
PC, seminal plasma ([2]; baseline 1.49 ± 0.50): 5.84±1.15 μM and 5.84 ± 1.15^b μM
PC, sperm cells ([2]; baseline 6.83 ± 0.98): 9.67±1.23 nmol/10^6 cells and 9.67 ± 1.23^b nmol/10^6 cells
increase of CoQ10 concentration in blood plasma compared with baseline value [3]: 2-3 times
CoQ10, sperm cells ([4]; after 6 months CoQ10 orally, baseline 3.1 ± 0.4, mean ± SD, P<0.05): 6.5±0.3 ng/10^6 cells and 6.5 ± 0.3^b ng/10^6 cells
Straight progressive velocity (VSL) (sperm cells [5]): 20.40±2.17 um/second
Straight progressive velocity (VSL) (sperm cells [5]; listed as coenzyme Q10): 20.40 ± 2.17^a um/second
Curvilinear velocity (VCL) (sperm cells [5]): 46.43±2.28 um/second
Curvilinear velocity (VCL) (sperm cells [5]; listed as coenzyme Q10): 46.43 ± 2.28^a um/second
patients who achieved spontaneous pregnancy ([6]; three out of 22 patients): 13.6%
pregnancy rate per cycle [6]: 2.4%
laboratory abnormalities (Safety assessment): no laboratory abnormalities were observed
tolerability (Safety assessment): generally well tolerated
